The values below come from patent US20200331950A1, “SGLTS INHIBITOR AND APPLICATION THEREOF” (SHANDONG DANHONG PHARMACEUTICAL CO., LTD., priority 2018, published 2020).

Broadly, the bioavailability is dose-corrected exposure relative to a reference, in per cent. As a reminder, the Cmax is the maximum level reached in the sampled fluid or tissue.

Marks after values point to notes of the source that are not given here.

Data set [1] is described as follows: In vivo pharmacokinetics in Beagle dogs. Conditions: male Beagle dogs. An excerpt:
Study on the In Vivo Pharmacokinetics in Beagle Dogs
The purpose of the experiment: Male beagle (Beagle) dogs were used as test animals and were given a single administration to determine the plasma concentration of the compound and evaluate the pharmacokinetic behavior.
Experimental method: Six male Beagle dogs were divided into 2 groups, with 3 dogs in an intravenous injection group and 3 dogs in an oral administration group. In the intravenous injection group, the test compound was mixed with an appropriate amount of vehicle (20% polyethylene glycol-400 (PEG400)/10% polyethylene glycol-15 hydroxy stearate (available from solutol)/70% water), then vortexed and sonicated to prepare 1 mg/mL clear solution, which was filtered by microporous membrane. In the oral administration group, 20% polyethylene glycol-400 (PEG400)/10% polyethylene glycol-15 hydroxy stearate (available from solutol)/70% water was used as a vehicle and mixed with the test compound, then vortexed and sonicated to prepare 1 mg/mL clear solution. The dogs were given intravenous administration at a dose of 1 mg/kg or oral administration at a dose of 2 mg/kg. Whole blood was collected at a certain period of time to prepare the plasma. The drug concentration of the plasma was analyzed by LC-MS/MS method, and the pharmacokinetic parameters were calculated using Phoenix WinNonlin software (Pharsight Company, USA).

Data set [2] concerns SD rats. As to the kind of experiment: Oral glucose tolerance test (OGTT) in rats, second time. Format: in vivo. Conditions: second study, male SD rats, 10 mg/kg single intragastric administration. As for the experimental part: Study on the In Vivo Efficacy of Oral Glucose Tolerance Test (OGTT) in Rats for the Second Time:
The experimental animals were allowed to adapt to the environment in the animal room for one week after they arrived.
The animals fasted in the metabolic cage for 18 hours, then were given drugs or vehicle (2 ml/kg) according to the above table, and subsequently were immediately given 50% glucose solution (2 g/kg, 4 ml/kg).
2 hours after the administration of glucose solution, feed intake was restored. Blood samples were taken at 0 min, 15 min, 30 min, 45 min, 60 min and 120 min respectively, and urine samples were collected at 0-24 h to test blood glucose, urine glucose (mg/200 g) and urine volume respectively.
All values are represented as averages. Statistical analysis was performed using Graphpad Prism 6 one-way analysis of variance and Tukey's multiple comparison test. P value of less than 0.05 is considered statistically significant.

As to `CCc1ccc([C@@H]2O[C@H](SC)[C@@H](O)[C@H](O)[C@H]2O)cc1Cc1ccc(C2=CCC(F)(F)CC2)cc1` [WXD010], the clearance in data set [1] (dog, plasma, intravenous 1 mg/kg or oral 2 mg/kg, read-out: Cl (clearance rate)) is 6.9 mL/min/kg. Also, the half-life in data set [1] (dog, plasma, intravenous 1 mg/kg or oral 2 mg/kg, read-out: T1/2 (half-life) (converted)) was 2.4 h. In addition, the Vd in data set [1] (dog, plasma, intravenous 1 mg/kg or oral 2 mg/kg, read-out: Vdss (distribution volume)) was determined as 1.49 L/kg. The bioavailability in data set [1] (dog, plasma, intravenous 1 mg/kg, oral 2 mg/kg, read-out: F % (oral bioavailability)) was determined as 82%. Besides, the maximum concentration (Cmax) in data set [1] (dog, single administration, intravenous 1 mg/kg or oral 2 mg/kg, plasma) amounted to 1290 nM. Besides, in data set [1] (oral 2 mg/kg), the “Oral DNAUC (AUCPO/Dose)” value amounted to 4051 nM · h/mpk. This compound registered an OGTT blood glucose level AUC0-2 hr in data set [2] (glucose 2 g/kg) of 720 mmol/L/min. Moreover, in data set [2] (urine 0-24 h), the Urine glucose level is listed as 2118.7**** mg/200 g, BW and the Urine volume is recorded as 20.0**** mL/200 g, BW.
